The text below walks through data of patent publication US6822100B2 (Bristol-Myers Squibb Company, priority 2001, dated 2004).

For test [1], the target named is T1, recombinant human dopamine D2L receptors (Homo sapiens, UniProt P14416).
T1 construct: expressed in transfected cells; host or cells: HEK-293 (HEK-D2L), membrane homogenates
As to the kind of experiment: Dopamine Binding Assay. Conditions: HEK-D2L cell membranes, 150 pM [3H]-spiperone, Cheng and Prusoff. Here is the method: HEK-293 cells that stably express recombinant human dopamine D2L receptors (HEK-D2L cells) were grown at 37° C. in 5% CO2 as a monolayer in medium consisting of EMEM supplemented with 10% fetal bovine serum and G418 sulfate (500 μg/ml). To prepare membranes for radioligand binding experiments, cells were rinsed twice with phosphate-buffered saline (138 mM NaCl, 4.1 mM KCl, 5.1 mM Na2PO4, 1.5 mM KH2PO2 11.1 mM glucose, pH 7.4), and incubated for 5-10 min. at 4° C. in hypotonic lysis buffer consisting of 10 mM Tris (pH 7.4) and 5 mM EDTA. Cells were transferred from plates to polypropylene tubes (16×100 mm), homogenized and centrifuged at 32,000×g for 20 min. Following centrifugation, pellets were resuspended by homogenization in buffer consisting of 50 mM Tris (pH 7.7 at 25° C.) and 1 mM EDTA. Homogenates were stored at −80° C. until needed. On the day of an experiment, homogenates were thawed then centrifuged at 32,000×g for 20 min. Following centrifugation, supernatants were discarded and pellets were resuspended in assay buffer consisting of 50 mM Tris (pH 7.4 at 25° C.), 1 mM EDTA and 6 mM MgCl2. Membrane homogenates (˜5 μg) were incubated with 150 pM [^3H]-spiperone (Amersham Life Science) and increasing concentrations of test compounds for 1.5 hr at 22° C. in a total volume of 400 μl. Reactions were stopped by addition of ice-cold assay buffer and filtration over glass fiber filters (Whatman GFB, pre-soaked in 0.05% polyethylenimine) using a microtitre format Brandel cell harvester. Filters were washed with 3 ml of ice-cold assay buffer. Non-specific binding was defined with 2 μM (+)butaclamol. Ki values were calculated using the method of Cheng and Prusoff (1973). Protein concentrations were determined by the method of Bradford (1976) with BSA as a standard.

In test [2] the target is T2, human serotonin transporters (Homo sapiens, UniProt P31645).
T2 construct: expressed in transfected cells; host or cells: HEK-293 (HEK-hSERT), membrane homogenates
T2 sequence (P31645 whole entry): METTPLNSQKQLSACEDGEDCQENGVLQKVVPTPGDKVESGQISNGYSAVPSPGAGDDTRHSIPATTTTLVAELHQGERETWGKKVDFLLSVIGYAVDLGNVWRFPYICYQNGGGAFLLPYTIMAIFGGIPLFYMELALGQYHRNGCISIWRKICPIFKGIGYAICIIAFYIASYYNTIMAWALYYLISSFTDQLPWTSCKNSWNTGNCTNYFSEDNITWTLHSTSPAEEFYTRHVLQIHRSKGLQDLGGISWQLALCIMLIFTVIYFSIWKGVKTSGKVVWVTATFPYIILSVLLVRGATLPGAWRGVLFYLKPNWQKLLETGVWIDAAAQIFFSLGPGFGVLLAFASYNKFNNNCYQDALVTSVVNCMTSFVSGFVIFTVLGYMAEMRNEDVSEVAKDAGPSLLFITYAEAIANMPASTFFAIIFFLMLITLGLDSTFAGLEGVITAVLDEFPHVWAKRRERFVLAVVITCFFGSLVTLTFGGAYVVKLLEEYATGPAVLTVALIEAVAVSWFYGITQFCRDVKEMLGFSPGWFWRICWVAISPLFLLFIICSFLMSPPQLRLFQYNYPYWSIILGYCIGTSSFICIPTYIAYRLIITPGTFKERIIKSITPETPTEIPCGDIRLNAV
Nature of the test: Serotonin Transporter Binding Assay. Conditions: HEK-hSERT cell membranes, 1 nM [3H]-citalopram, Cheng and Prusoff. Here is the method:
HEK-293 cells that stably express human serotonin transporters (HEK-hSERT cells) were grown at 37° C. in 5% CO2 as a monolayer in medium consisting of EMEM supplemented with 10% fetal bovine serum and G418 sulfate (500 μg/ml). To prepare membranes for radioligand binding experiments, cells were rinsed twice with phosphate-buffered saline (138 mM NaCl, 4.1 mM KCl, 5.1 mM Na2PO4, 1.5 mM […], 11.1 mM glucose, pH 7.4). Cells were transferred from plates to polypropylene tubes (16×100 mm), centrifuged at 1,200×g for 5 min and were frozen at −80° C. until assay. Following centrifugation, pellets were resuspended by homogenization in buffer consisting of 50 mM Tris (pH 7.7 at 25° C.), 120 mM NaCl and 5 mM KCl and then centrifuged at 32,000×g for 10 min. Following centrifugation, supernatants were discarded and pellets were resuspended in buffer consisting of 50 mM Tris (pH 7.4 at 25° C.), 150 mM NaCl and 5 mM KCl. Membrane homogenates (200 μl/plate) were incubated with 1 nM [^3H]-citalopram (specific activity=85 Ci/mmol) and increasing concentrations of test compounds for 1 hr at 25° C. in a total volume of 250 μl. The assay buffer consisted of 50 mM Tris (pH 7.4 at 25° C.), 120 mM NaCl and 5 mM KCl (pH 7.4 with conc. HCl). Plates were incubated for 1 hr at 25° C., then filtered through 0.5% PEI treated Whatman GF/B filters using a Brandel cell harvester. Filters were washed three times with 3 ml of ice-cold tris wash buffer. Non-specific binding was defined with 10 μM fluoxetine. Amount of radioligand bound in the presence and absence of competitor was analyzed by plotting (−)log drug concentration versus the amount of radioligand specifically bound. The midpoint of the displacement curve (IC50, nM), signifies the potency. Ki values were calculated using the method of Cheng and Prusoff (1973).

Read-outs that look alike come from different tables or passages of the source.

T1 sequence (P14416 whole entry): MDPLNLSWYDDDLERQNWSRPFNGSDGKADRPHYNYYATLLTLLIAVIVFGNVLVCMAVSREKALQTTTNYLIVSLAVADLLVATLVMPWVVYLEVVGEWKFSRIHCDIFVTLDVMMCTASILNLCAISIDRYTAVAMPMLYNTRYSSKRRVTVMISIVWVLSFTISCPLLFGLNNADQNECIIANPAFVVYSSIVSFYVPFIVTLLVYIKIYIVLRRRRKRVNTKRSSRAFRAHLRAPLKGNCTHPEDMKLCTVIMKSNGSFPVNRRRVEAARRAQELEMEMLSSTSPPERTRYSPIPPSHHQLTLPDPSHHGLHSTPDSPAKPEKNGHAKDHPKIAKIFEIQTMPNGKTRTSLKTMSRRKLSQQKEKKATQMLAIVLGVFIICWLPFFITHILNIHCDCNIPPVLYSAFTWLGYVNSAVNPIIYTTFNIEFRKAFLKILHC

Regarding `CN(C)CC1CC1c1c[nH]c2ccc(C#N)cc12` (single isomer, unassigned) [Example 129b, Cis-2-[5-Cyanoindol-3-yl]-1-(N,N-dimethylaminomethyl)cyclopropane], the figures for the Ki in test [1] and in test [2] (SERT Ki (nM)) were more than 1000 nM and 1 to 10 nM, respectively.

Regarding `N#Cc1ccc2[nH]cc([C@@H]3C[C@H]3CNCCc3ccccc3)c2c1` (relative stereo) [Example 40], the Ki is 10 to 100 nM in test [1] and 1 to 10 nM in test [2] (read-out: SERT Ki).

On to `Fc1ccc2[nH]cc(C3CC3CNCCCn3ccnc3)c2c1` (stereo not drawn) [Example 65, trans-2-[5-Fluoroindol-3-yl]-1-[N-3-(1-imidazolyl)propylaminomethyl]-cyclopropane], for which the Ki in test [1] and in test [2] (read-out: SERT Ki) was 10 to 100 nM in each case.

On to `Fc1ccc2[nH]cc(C3CC3CN3CCNCC3)c2c1` (stereo not drawn) [Example 74, trans-2-[5-Fluoroindol-3-yl]-1-(piperazin-1-yl-methyl)-cyclopropane], for which the Ki in test [1] is more than 1000 nM; in test [2] (SERT Ki (nM)), 1 to 10 nM.

On to `CN(C)CC1CC1c1csc2ccccc12` (single isomer, unassigned; (+)) [Example 190B, (+)-(2-Benzo[b]thiophen-3-yl-cyclopropylmethyl)-dimethyl-amine], for which the Ki in test [1] was more than 1000 nM; in test [2] (read-out: SERT Ki), 10 to 100 nM.

`CCCOC(=O)NCCN(C)C[C@@H]1C[C@H]1c1c[nH]c2ccc(F)cc12` (relative stereo) [Example 102]: the Ki in test [1] lay in the range of 100 to 1000 nM; in test [2] (read-out: SERT Ki), 1 to 10 nM.

`N#Cc1ccc2[nH]cc(C3CC3CN3CCCC3)c2c1` (stereo not drawn) [Example 46, trans-2-[5-Cyanoindol-3-yl]-1-[pyrrolidin-1-yl-methyl]-cyclopropane]: the Ki was in the range of 100 to 1000 nM in test [1] and 1 to 10 nM in test [2] (read-out: SERT Ki).

Regarding `CN(C)C[C@@H]1C[C@H]1Cc1c[nH]c2ccc(F)cc12` (single isomer, unassigned) [Example 148, (+)-[2-(5-Fluoro-1H-indol-3-ylmethyl)-cyclopropylmethyl]-dimethylamine], the Ki was in the range of 100 to 1000 nM in test [1] and 10 to 100 nM in test [2] (read-out: SERT Ki).

With `CCN(CCCNC(=O)OC)C[C@@H]1C[C@H]1c1c[nH]c2ccc(C#N)cc12` (relative stereo) [Example 97, trans-2-[5-Cyanoindol-3-yl]-1-[N,N-ethyl-2-amino(methylcarbamoyl)propylaminomethyl]-cyclopropane], the Ki lay within 100 to 1000 nM in test [1] and 1 to 10 nM in test [2] (read-out: SERT Ki).

For the molecule `N#Cc1ccc2[nH]cc([C@@H]3C[C@H]3CNCCc3ccc(F)cc3)c2c1` (relative stereo) [Example 19, trans-2-[5-Cyanoindol-3-yl]-1-[N-2-(4-fluorophenyl)ethylaminomethyl]-cyclopropane], the Ki is 10 to 100 nM in test [1] and 1 to 10 nM in test [2] (read-out: SERT Ki).

Consider `Fc1ccc2[nH]cc(C3CC3CNCc3ccccn3)c2c1` (stereo not drawn) [Example 56, trans-2-[5-Fluoroindol-3-yl]-1-[N-(2-pyridylmethyl)aminomethyl]-cyclopropane], for which the figures for the Ki in test [1] and in test [2] (read-out: SERT Ki) were 100 to 1000 nM and 10 to 100 nM, respectively.

Turning to `Fc1ccc2[nH]cc(C3CC3CN3CCCC3)c2c1` (stereo not drawn) [Example 84, trans-2-[5-Fluoroindol-3-yl]-1-[pyrrolidin-1-yl-methyl]-cyclopropane], the Ki in test [1] was 100 to 1000 nM; in test [2] (read-out: SERT Ki), 1 to 10 nM.

Take `CN(CC1CC1c1c[nH]c2ccc(C#N)cc12)c1ccccc1` (centres unmarked) [Example 138]: the Ki was more than 1000 nM in test [1] and 10 to 100 nM in test [2] (read-out: SERT Ki).

On to `CN(Cc1ccccc1)C[C@H]1C[C@@H]1c1c[nH]c2cc(C#N)ccc12` (racemic) [Example 162, 3-{2-[(Benzyl-methyl-amino)-methyl]-cyclopropyl}-1H-indole-6-carbonitrile], for which the inhibition constant (Ki) lay in the range of 100 to 1000 nM in test [1] and 10 to 100 nM in test [2] (read-out: SERT Ki).

Turning to `COc1ccccc1CCNC[C@@H]1C[C@H]1c1c[nH]c2ccc(F)cc12` (relative stereo) [Example 80], the Ki in test [1] and in test [2] (read-out: SERT Ki) was 10 to 100 nM throughout.

For the molecule `Fc1cccc(CNCC2CC2c2c[nH]c3ccc(F)cc23)c1` (stereo not drawn) [Example 54, trans-1-[N-(3-Fluorobenzyl)aminomethyl]2-[5-fluoroindol-3-yl]-cyclopropane], the Ki in test [1] was in the range of 100 to 1000 nM; in test [2] (read-out: SERT Ki) it was 10 to 100 nM.

On to `CCCOC(=O)NCCN(C)C[C@@H]1C[C@H]1c1c[nH]c2ccc(C#N)cc12` (relative stereo) [Example 88, trans-2-[5-Cyanoindol-3-yl]-1-[N,N-methyl-2-amino(propylcarbamoyl)ethylaminomethyl]-cyclopropane], for which the Ki in test [1] was more than 1000 nM; in test [2] (read-out: SERT Ki), 1 to 10 nM.

Take `CN(C)CC1CC1c1c[nH]c2cc(F)c(F)cc12` (centres unmarked) [Example 152, [2-(5,6-Difluoro-1H-indol-3-yl)-cyclopropylmethyl]-dimethyl-amine]: the Ki is more than 1000 nM in test [1] and 1 to 10 nM in test [2] (SERT Ki (nM)).

For the molecule `CCNCCCC1CC1c1c[nH]c2ccc(C#N)cc12` (stereo not drawn) [Example 176, Trans-2-[5-cyanoindol-3-yl]-1-(3-(N-ethylamino)propyl)cyclopropane], the values for the Ki in test [1] and in test [2] (read-out: SERT Ki) were 100 to 1000 nM and 10 to 100 nM, respectively.

As for `COc1cccc(CCNC[C@@H]2C[C@H]2c2c[nH]c3ccc(F)cc23)c1` (relative stereo) [Example 81], the Ki in test [1] and in test [2] (read-out: SERT Ki) was 10 to 100 nM in each case.

For the molecule `CNC[C@H]1C[C@@H]1c1c[nH]c2cc(C#N)ccc12` (racemic) [Example 158, 3-(2-Methylaminomethyl-cyclopropyl)-1H-indole-6-carbonitrile], the Ki in test [1] was more than 1000 nM; in test [2] (SERT Ki (nM)) it was 10 to 100 nM.

In the case of `CCNC(C)C1CC1c1c[nH]c2ccc(C#N)cc12` (racemic) [Example 126, trans-3-[2-(1-Ethylamino-ethyl)-cyclopropyl]-1H-indole-5-carbonitrile], the Ki in test [1] lay in the range of 100 to 1000 nM; in test [2] (read-out: SERT Ki), 10 to 100 nM.

Turning to `CCCNC[C@@H]1C[C@H]1c1c[nH]c2ccc(C#N)cc12` (relative stereo) [Example 45], the Ki fell in the range of 100 to 1000 nM in test [1] and 10 to 100 nM in test [2] (read-out: SERT Ki).

For the molecule `CCCOC(=O)NCCN(CC)C[C@@H]1C[C@H]1c1c[nH]c2ccc(C#N)cc12` (relative stereo) [Example 95, trans-2-[5-Cyanoindol-3-yl]-1-[N,N-ethyl-2-amino(propylcarbamoyl)ethylaminomethyl]-cyclopropane], the Ki in test [1] was more than 1000 nM; in test [2] (read-out: SERT Ki) it was 1 to 10 nM.

As to `CCN(CC)C[C@@H]1C[C@H]1c1c[nH]c2ccc(F)cc12` (relative stereo) [Example 86], the figures for the Ki in test [1] and in test [2] (read-out: SERT Ki) were 100 to 1000 nM and 10 to 100 nM, respectively.

`CCN(CC)C(C)C1CC1c1c[nH]c2ccc(C#N)cc12` (racemic) [Example 123, trans-3-[2-(1-Diethylamino-ethyl)-cyclopropyl]-1H-indole-5-carbonitrile]: the Ki in test [1] is more than 1000 nM; in test [2] (SERT Ki (nM)), 10 to 100 nM.

Regarding `COC(=O)NCCCN(C)C[C@@H]1C[C@H]1c1c[nH]c2ccc(C#N)cc12` (relative stereo) [Example 89, trans-2-[5-Cyanoindol-3-yl]-1-[N,N-methyl-2-amino(methylcarbamoyl)propylaminomethyl]-cyclopropane], the Ki in test [1] is more than 1000 nM; in test [2] (read-out: SERT Ki), 1 to 10 nM.

On to `Fc1ccc2[nH]cc(C3CC3CNCCc3c[nH]c4ccccc34)c2c1` (stereo not drawn) [Example 68, trans-2-[5-Fluoroindol-3-yl]-1-[N-2-(3-indolyl)ethylaminomethyl]-cyclopropane], for which the results for the Ki in test [1] and in test [2] (read-out: SERT Ki) were 10 to 100 nM and 1 to 10 nM, respectively.
